Publication PMC4175002, “The Design and Synthesis of Potent and Selective Inhibitors of Trypanosoma brucei Glycogen Synthase Kinase 3 for the Treatment of Human African Trypanosomiasis” (Journal of Medicinal Chemistry, 2014)

Tests used:
TbGSK3 short = biological target: T1, TbGSK3 short (Trypanosoma brucei brucei, UniProt Q388M1); experiment: Radiometric 96-well Flashplate potency assay, TbGSK3; type: biochemical
T1 sequence (Q388M1 1-352): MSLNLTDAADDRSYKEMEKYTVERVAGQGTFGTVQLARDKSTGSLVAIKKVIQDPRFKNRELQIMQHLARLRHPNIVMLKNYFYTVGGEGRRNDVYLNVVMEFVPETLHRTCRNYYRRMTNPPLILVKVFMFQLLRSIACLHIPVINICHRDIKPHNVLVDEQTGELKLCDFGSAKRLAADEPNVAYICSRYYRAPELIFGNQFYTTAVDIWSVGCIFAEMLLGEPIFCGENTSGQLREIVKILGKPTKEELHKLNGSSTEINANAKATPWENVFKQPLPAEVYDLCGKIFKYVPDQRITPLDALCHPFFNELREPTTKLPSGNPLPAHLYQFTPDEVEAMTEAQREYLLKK
Method: (§1) For compound potency determinations, a radiometric 96-well Flashplate assay (PerkinElmer) was adopted. Compounds were solubilized in DMSO at a top concentration of 3 mM and serially diluted to achieve 10-point titration of final assay concentrations from 30 μM to 0.3 nM with a final DMSO concentration of 1% (v/v). The reaction mixtures contained 1 μM biotinylated GSP2 substrate, 1 μM ATP, 3.7 KBq/well [γ-33P]-ATP and 2.5 nM TbGSK3 in the TbGSK3 kinase assay buffer. GSK3 inhibitors were screened for selectivity assessment also against HsGSK3β. For HsGSK3 assay, the reaction mixes contained 1 μM biotinylated GSP2 substrate, 2 μM ATP, 7.4 KBq/well [γ-33P]-ATP and 15 nM HsGSK3β in the TbGSK3 kinase assay buffer (25 mM Tris-HCl, pH 7.5, 10 mM MgCl2, 5 mM DTT, 0.02% CHAPS, 2 U/mL heparin). For HsCDK2/cyclin A assay, the reaction mixtures contained 1 mM CDK5 biotinylated peptide substrate (Biotin-C6-PKTPKKAKKL), 1 μM ATP, 7.4 KBq/well [γ-^33P]-ATP and 2 nM HsCDK2/cyclin A in the kinase assay buffer (50 mM Tris-HCl, pH 7.5, 10 mM MgCl2, 2 mM DTT, 100 mM NaCl, 0.2 mM EGTA, 0.02% (v/v) Brij35).
The statistical significance of the compound potency (IC50) was based on the performance of standard molecules which have been tested to a high replication. In the case of TbGSK3 short assay, the standard compound GW8510 was tested 93 times across 9 independent runs. […] The minimum significant ratio (MSR) of 0.4 was evaluated considering the following formula: [drawing 1] where SD is the standard deviation and N the number of replicate values routinely used for the assay (2 in our case).[31] This implies that a difference of >0.4 in pIC50 can be considered statistically significant for this assay.

P38b MAPK = biological target: T2, P38b MAPK (Homo sapiens, UniProt Q15759); experiment: Mammalian kinase profiling (DSTT panel); type: biochemical; details: 10 μM; average percentage of remaining activity
T2 construct: purchased Division of Signal Transduction Therapy (DSTT), University of Dundee
T2 sequence (Q15759 whole entry): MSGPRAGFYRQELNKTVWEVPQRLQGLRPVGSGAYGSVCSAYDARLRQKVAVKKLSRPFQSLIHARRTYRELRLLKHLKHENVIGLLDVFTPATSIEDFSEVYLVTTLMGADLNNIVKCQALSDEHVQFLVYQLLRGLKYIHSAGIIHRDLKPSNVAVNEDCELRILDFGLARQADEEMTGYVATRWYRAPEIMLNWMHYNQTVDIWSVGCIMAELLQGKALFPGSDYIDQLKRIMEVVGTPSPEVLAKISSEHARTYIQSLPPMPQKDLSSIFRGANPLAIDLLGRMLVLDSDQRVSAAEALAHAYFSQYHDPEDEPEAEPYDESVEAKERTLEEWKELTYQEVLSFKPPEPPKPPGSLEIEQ

HsCDK2/cyclin A = HsCDK2/cyclin A (Homo sapiens, UniProt P24941); experiment: Radiometric Flashplate potency assay, HsCDK2/cyclin A; type: biochemical; details: ratio of IC50 values
Method: as §1
For the HsCDK2 assay, the analysis was performed using two different standards (GW8510 and staurosporine) tested respectively five times in a single run and 19 times in 2 independent runs. This implies that a difference of >0.3 in pIC50 can be considered statistically significant for this assay.

MRC5 cells = experiment: MRC5 proliferation assay (resazurin); type: cell-based, human; details: T. b. brucei versus MRC5 EC50
Method: (§2) Measurement of inhibition of the proliferation of MRC5 (human lung fibroblast) cells and T. b. brucei bloodstream stage cells was performed using a modification of the cell viability assay previously described.[33] Compounds (50 μM to 0.5 nM) were incubated with 2 × 10^3 cells/well in 0.2 mL of the appropriate culture medium (MEM with 10% fetal bovine serum for MRC5 cells) in clear 96-well plates. Plates were incubated at 37 °C in the presence of 5% CO2 for 69 h. Resazurin was then added to a final concentration of 50 μM, and plates were incubated as above for a further 4 h before being read on a BioTek flx800 fluorescent plate reader.

GSK3b = biological target: T3, GSK3b (Homo sapiens, UniProt P49841); experiment: Mammalian kinase profiling (DSTT panel); type: biochemical; details: read-out: inhibition of GSK3β
T3 construct: purchased Division of Signal Transduction Therapy (DSTT), University of Dundee
T3 sequence (P49841 whole entry): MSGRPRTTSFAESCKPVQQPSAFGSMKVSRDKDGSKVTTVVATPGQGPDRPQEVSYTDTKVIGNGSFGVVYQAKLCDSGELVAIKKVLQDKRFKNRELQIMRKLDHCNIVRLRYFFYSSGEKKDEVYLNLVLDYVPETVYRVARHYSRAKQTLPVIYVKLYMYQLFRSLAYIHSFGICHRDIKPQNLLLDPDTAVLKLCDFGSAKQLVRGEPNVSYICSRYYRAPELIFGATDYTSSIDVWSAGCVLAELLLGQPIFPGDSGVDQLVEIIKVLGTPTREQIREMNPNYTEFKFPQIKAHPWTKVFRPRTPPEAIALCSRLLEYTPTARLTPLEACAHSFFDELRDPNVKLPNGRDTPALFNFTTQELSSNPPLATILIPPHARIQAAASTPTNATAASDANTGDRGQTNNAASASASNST

CDK2 = biological target: T4, CDK2 (Homo sapiens, UniProt P24941); experiment: Mammalian kinase profiling (DSTT panel); type: biochemical
T4 construct: purchased Division of Signal Transduction Therapy (DSTT), University of Dundee

[1] = tested on: bloodstream form T. b. brucei; experiment: Trypanosome proliferation assay (resazurin); type: cell-based; details: Trypanosoma brucei, 72 h, concentration required to inhibit growth in culture by 50% over 72 h
Method: as §2

endogenous TbGSK3 short = details: parasite cell extracts; cited from earlier work
AMPK = experiment: Mammalian kinase profiling (DSTT panel); type: biochemical, human; details: 10 μM; average percentage of remaining activity
Method: To assess the selectivity of the aminopyrazole inhibitors, remaining activity at 10 μM concentration was measured for compounds 4f, 4m, and 4y against a panel of 80 human PKs and for compound 9g against 124 human PKs. […] Compound 4m inhibited only two PKs, namely GSK3β and CDK2, at more than 80%.
Selected compounds were screened against a panel of mammalian kinases routinely run by the Division of Signal Transduction Therapy (DSTT) at the University of Dundee in duplicate at 10 μM.[32] Enzymes included in the panel and assay conditions are reported in the literature. All biochemical assays are run below the Km^app for the ATP for each enzyme, allowing comparison of inhibition across the panel.

RSK2 = biological target: T5, RSK2 (Homo sapiens, UniProt P51812); experiment: Mammalian kinase profiling (DSTT panel); type: biochemical; details: 10 μM; average percentage of remaining activity
T5 construct: purchased Division of Signal Transduction Therapy (DSTT), University of Dundee
T5 sequence (P51812 whole entry): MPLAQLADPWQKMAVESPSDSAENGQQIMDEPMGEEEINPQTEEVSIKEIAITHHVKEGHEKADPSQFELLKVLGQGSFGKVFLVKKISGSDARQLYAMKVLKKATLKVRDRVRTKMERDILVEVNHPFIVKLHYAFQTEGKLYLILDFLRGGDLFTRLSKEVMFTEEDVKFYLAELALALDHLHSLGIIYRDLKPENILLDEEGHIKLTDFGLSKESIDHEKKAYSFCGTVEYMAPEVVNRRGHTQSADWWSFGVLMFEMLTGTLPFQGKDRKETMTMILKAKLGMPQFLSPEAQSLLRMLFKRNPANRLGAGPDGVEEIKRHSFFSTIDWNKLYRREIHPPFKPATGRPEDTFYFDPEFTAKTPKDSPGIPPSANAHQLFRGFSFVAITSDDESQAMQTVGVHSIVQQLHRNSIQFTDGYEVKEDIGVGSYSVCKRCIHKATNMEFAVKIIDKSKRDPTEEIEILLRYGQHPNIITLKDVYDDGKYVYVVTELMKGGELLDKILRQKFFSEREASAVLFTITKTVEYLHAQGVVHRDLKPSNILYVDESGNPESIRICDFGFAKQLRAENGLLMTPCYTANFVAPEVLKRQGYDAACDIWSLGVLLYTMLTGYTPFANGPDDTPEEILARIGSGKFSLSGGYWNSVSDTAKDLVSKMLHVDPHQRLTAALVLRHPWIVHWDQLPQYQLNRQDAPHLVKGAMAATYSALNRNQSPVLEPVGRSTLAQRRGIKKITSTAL

PKBa = biological target: T6, PKBa (Homo sapiens, UniProt P31749); experiment: Mammalian kinase profiling (DSTT panel); type: biochemical; details: average percentage of remaining activity, read-out: PKBa activity compared to the control
T6 construct: purchased Division of Signal Transduction Therapy (DSTT), University of Dundee
T6 sequence (P31749 whole entry): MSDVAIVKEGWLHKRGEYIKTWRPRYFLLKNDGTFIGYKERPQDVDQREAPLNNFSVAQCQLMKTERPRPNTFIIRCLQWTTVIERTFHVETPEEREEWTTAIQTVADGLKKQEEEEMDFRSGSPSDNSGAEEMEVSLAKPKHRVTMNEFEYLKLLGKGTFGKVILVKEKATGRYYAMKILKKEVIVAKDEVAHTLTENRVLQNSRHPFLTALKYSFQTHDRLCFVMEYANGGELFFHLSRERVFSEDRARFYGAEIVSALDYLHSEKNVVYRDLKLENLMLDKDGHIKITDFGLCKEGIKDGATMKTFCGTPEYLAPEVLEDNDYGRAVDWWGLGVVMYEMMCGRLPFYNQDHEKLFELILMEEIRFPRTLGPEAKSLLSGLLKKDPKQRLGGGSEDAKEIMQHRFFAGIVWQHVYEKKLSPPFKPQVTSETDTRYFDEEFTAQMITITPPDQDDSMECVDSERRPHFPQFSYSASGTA

PRK2 = biological target: T7, PRK2 (Homo sapiens, UniProt Q16513); experiment: Mammalian kinase profiling (DSTT panel); type: biochemical; details: 10 μM; average percentage of remaining activity
T7 construct: purchased Division of Signal Transduction Therapy (DSTT), University of Dundee
T7 sequence (Q16513 whole entry): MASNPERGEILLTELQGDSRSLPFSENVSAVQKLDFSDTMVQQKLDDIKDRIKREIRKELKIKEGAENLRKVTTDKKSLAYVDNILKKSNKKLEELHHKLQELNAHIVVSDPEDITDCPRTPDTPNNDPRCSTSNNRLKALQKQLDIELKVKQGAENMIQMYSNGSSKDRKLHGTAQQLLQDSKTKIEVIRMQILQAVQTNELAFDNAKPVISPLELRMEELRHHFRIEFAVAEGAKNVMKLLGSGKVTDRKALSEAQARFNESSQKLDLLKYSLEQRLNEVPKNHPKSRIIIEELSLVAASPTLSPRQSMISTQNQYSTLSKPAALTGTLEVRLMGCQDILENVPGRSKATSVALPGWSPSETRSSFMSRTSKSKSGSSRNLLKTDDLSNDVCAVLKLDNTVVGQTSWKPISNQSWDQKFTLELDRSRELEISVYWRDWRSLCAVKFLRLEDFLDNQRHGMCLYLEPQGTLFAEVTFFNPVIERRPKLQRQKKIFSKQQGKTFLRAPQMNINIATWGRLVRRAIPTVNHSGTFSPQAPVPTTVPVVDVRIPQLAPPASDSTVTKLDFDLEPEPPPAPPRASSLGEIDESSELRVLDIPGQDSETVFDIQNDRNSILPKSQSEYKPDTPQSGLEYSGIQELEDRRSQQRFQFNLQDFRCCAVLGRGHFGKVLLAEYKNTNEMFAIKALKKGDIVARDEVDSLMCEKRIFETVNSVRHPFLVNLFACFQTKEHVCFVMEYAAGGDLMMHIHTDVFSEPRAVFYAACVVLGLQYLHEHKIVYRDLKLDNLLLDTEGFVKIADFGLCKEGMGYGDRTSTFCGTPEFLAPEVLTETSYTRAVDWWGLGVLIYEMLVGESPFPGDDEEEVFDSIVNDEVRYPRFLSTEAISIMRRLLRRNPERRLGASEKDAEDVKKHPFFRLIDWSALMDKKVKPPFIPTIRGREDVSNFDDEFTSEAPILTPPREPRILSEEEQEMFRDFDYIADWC

| SMILES | improvement of TbGSK3 inhibition potency (TbGSK3 short; relative to saturated six-membered rings (4a, 4b) and benzyl groups (4c, 4d, 4e), on average) [fold] | P38b MAPK activity compared to the control (P38b MAPK) [%] | ratio HsCDK2/TbGSK3 (HsCDK2/cyclin A) | TbGSK3 potency relative to 4f (TbGSK3 short; more potent than the unsubstituted phenyl compound 4f) | selectivity over MRC5 cells (MRC5 cells) [fold] | inhibition at 10 µM (GSK3b) [%] | inhibition at 10 µM (CDK2) [%] | EC50 [1] [nM] | affinity for endogenous TbGSK3 short (endogenous TbGSK3 short) | AMPK activity compared to the control (AMPK) [%] | RSK2 activity compared to the control (RSK2) [%] | remaining activity at 10 µM (PKBa) [%] | PRK2 activity compared to the control (PRK2) [%] |
| --- | --- | --- | --- | --- | --- | --- | --- | --- | --- | --- | --- | --- | --- |
| CO[C@H]1CC[C@H](NC(=O)c2n[nH]cc2NC(=O)c2ccccc2)CC1 [Compound 4f, 4-Benzamido-N-(4-methoxycyclohexyl)-1H-pyrazole-3-carboxamide] | ~20 | 74 | <1.6 | – | – | – | – | – | – | – | – | – | – |
| COc1cccc(OC)c1C(=O)Nc1c[nH]nc1C(=O)NC1CCC(OC)CC1 (centres unmarked) [Compound 4m, 4-(2,6-Dimethoxybenzamido)-N-(4-methoxycyclohexyl)-1H-pyrazole-3-carboxamide] | – | – | – | approximately 10 fold | 60 | > 80 | > 80 | < 1000 | nanomolar affinity | 88 | – | – | – |
| CO[C@H]1CC[C@H](NC(=O)c2n[nH]cc2NC(=O)c2ccc(-c3ccccc3)o2)CC1 [Compound 4y, N-(4-Methoxycyclohexyl)-4-(5-phenylfuran-2-carboxamido)-1H-pyrazole-3-carboxamide] | – | – | – | – | – | – | – | – | – | 49 | 93 | 86 | 65 |
